The values that follow come from patent US10206394B2, “Herbicidal compounds” (Syngenta Participations AG, priority 2014, dated 2019).

Molecules are shown by their SMILES. Read-outs that look alike come from different tables or passages of the source.

Common to all, as to test: Glasshouse assay for herbicidal activity (pre- and post-emergence), percentage phytotoxicity
Type in all cases: in vivo

In experiment [1] the test system is Echinochloa crus-galli (ECHCG). To be noted: Echinochloa crus-galli. In outline:
(§1)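 Pot-grown plants treated one day after sowing (pre-emergence) or at about 12 days (post-emergence); glasshouse at 24/18° C (warm) or 20/16° C (cool species) day/night, 16 h light, 65% humidity. Visual % phytotoxicity (0 = none, 100 = total damage) scored at 15 DAA post or 20 DAA pre.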

The test system of another experiment is Avena fatua (AVEFA). As to conditions: Avena fatua. The method in brief: as §1
A further experiment relates to Lolium perenne (LOLPE). To be noted: Lolium perenne. In outline: as §1
Experiment [2] relates to Alopecurus myosuroides (ALOMY). To be noted: Alopecurus myosuroides. In outline:
as §1

[3] abbreviates: post-emergence, 360 h, POST-emergence, rate 250 g/ha, visual score 15 DAA (100%=total damage, 0%=no damage), read-out: Post-emergence herbicidal activity (percentage phytotoxicity) ECHCG POST.
The mark [4] stands for this setting: pre-emergence, 480 h, PRE-emergence, rate 250 g/ha, visual score 20 DAA (100%=total damage, 0%=no damage), read-out: Pre-emergence herbicidal activity (percentage phytotoxicity) ECHCG PRE.
Setting [5] is: post-emergence, 360 h, POST-emergence, rate 250 g/ha, visual score 15 DAA (100%=total damage, 0%=no damage), read-out: Post-emergence herbicidal activity (percentage phytotoxicity) AVEFA POST.
Setting [6] is: pre-emergence, 480 h, PRE-emergence, rate 250 g/ha, visual score 20 DAA (100%=total damage, 0%=no damage), read-out: Pre-emergence herbicidal activity (percentage phytotoxicity) AVEFA PRE.
Setting [7] is: post-emergence, 360 h, POST-emergence, rate 250 g/ha, visual score 15 DAA (100%=total damage, 0%=no damage), read-out: Post-emergence herbicidal activity (percentage phytotoxicity) LOLPE POST.
Where [8] appears, read: pre-emergence, 480 h, PRE-emergence, rate 250 g/ha, visual score 20 DAA (100%=total damage, 0%=no damage), read-out: Pre-emergence herbicidal activity (percentage phytotoxicity) LOLPE PRE.
Setting [9] is: post-emergence, 360 h, POST-emergence, rate 250 g/ha, visual score 15 DAA (100%=total damage, 0%=no damage), read-out: Post-emergence herbicidal activity (percentage phytotoxicity) ALOMY POST.
Where [10] appears, read: pre-emergence, 480 h, PRE-emergence, rate 250 g/ha, visual score 20 DAA (100%=total damage, 0%=no damage), read-out: Pre-emergence herbicidal activity (percentage phytotoxicity) ALOMY PRE.
The mark [11] stands for this setting: post-emergence, 360 h, Rate 250 g/ha, post-emergence, visual assessment 15 DAA, 100%=total damage, 0%=no damage, read-out: Post-emergence herbicidal activity (percentage phytotoxicity) ECHCG POST.
[12] abbreviates: pre-emergence, 480 h, Rate 250 g/ha, pre-emergence, visual assessment 20 DAA, 100%=total damage, 0%=no damage, read-out: Pre-emergence herbicidal activity (percentage phytotoxicity) ECHCG PRE.
Setting [13] is: post-emergence, 360 h, Rate 250 g/ha, post-emergence, visual assessment 15 DAA, 100%=total damage, 0%=no damage, read-out: Post-emergence herbicidal activity (percentage phytotoxicity) AVEFA POST.
Setting [14] is: pre-emergence, 480 h, Rate 250 g/ha, pre-emergence, visual assessment 20 DAA, 100%=total damage, 0%=no damage, read-out: Pre-emergence herbicidal activity (percentage phytotoxicity) AVEFA PRE.
Setting [15] is: post-emergence, 360 h, Rate 250 g/ha, post-emergence, visual assessment 15 DAA, 100%=total damage, 0%=no damage, read-out: Post-emergence herbicidal activity (percentage phytotoxicity) LOLPE POST.
The mark [16] stands for this setting: pre-emergence, 480 h, Rate 250 g/ha, pre-emergence, visual assessment 20 DAA, 100%=total damage, 0%=no damage, read-out: Pre-emergence herbicidal activity (percentage phytotoxicity) LOLPE PRE.
[17] abbreviates: post-emergence, 360 h, Rate 250 g/ha, post-emergence, visual assessment 15 DAA, 100%=total damage, 0%=no damage, read-out: Post-emergence herbicidal activity (percentage phytotoxicity) ALOMY POST.
The mark [18] stands for this setting: pre-emergence, 480 h, Rate 250 g/ha, pre-emergence, visual assessment 20 DAA, 100%=total damage, 0%=no damage, read-out: Pre-emergence herbicidal activity (percentage phytotoxicity) ALOMY PRE.
Where [19] appears, read: post-emergence, 360 h, Rate 250 g/ha, post-emergence, assessed visually 15 DAA, 100%=total damage, 0%=no damage, read-out: Post-emergence herbicidal activity (percentage phytotoxicity) ECHCG POST.
Setting [20] is: pre-emergence, 480 h, Rate 250 g/ha, pre-emergence, assessed visually 20 DAA, 100%=total damage, 0%=no damage, read-out: Pre-emergence herbicidal activity (percentage phytotoxicity) ECHCG PRE.
Where [21] appears, read: post-emergence, 360 h, Rate 250 g/ha, post-emergence, assessed visually 15 DAA, 100%=total damage, 0%=no damage, read-out: Post-emergence herbicidal activity (percentage phytotoxicity) AVEFA POST.
Where [22] appears, read: pre-emergence, 480 h, Rate 250 g/ha, pre-emergence, assessed visually 20 DAA, 100%=total damage, 0%=no damage, read-out: Pre-emergence herbicidal activity (percentage phytotoxicity) AVEFA PRE.
The mark [23] stands for this setting: post-emergence, 360 h, Rate 250 g/ha, post-emergence, assessed visually 15 DAA, 100%=total damage, 0%=no damage, read-out: Post-emergence herbicidal activity (percentage phytotoxicity) LOLPE POST.
Where [24] appears, read: pre-emergence, 480 h, Rate 250 g/ha, pre-emergence, assessed visually 20 DAA, 100%=total damage, 0%=no damage, read-out: Pre-emergence herbicidal activity (percentage phytotoxicity) LOLPE PRE.
Setting [25] is: post-emergence, 360 h, Rate 250 g/ha, post-emergence, assessed visually 15 DAA, 100%=total damage, 0%=no damage, read-out: Post-emergence herbicidal activity (percentage phytotoxicity) ALOMY POST.
[26] abbreviates: pre-emergence, 480 h, Rate 250 g/ha, pre-emergence, assessed visually 20 DAA, 100%=total damage, 0%=no damage, read-out: Pre-emergence herbicidal activity (percentage phytotoxicity) ALOMY PRE.

Take `C/C=C/c1cc(C)c(C2C(=O)CC(CC(=O)NCc3cccc(Cl)c3)C2=O)c(CC)c1` (stereo not drawn) [Compound B187]: the pest or weed control at 250 g/ha in experiment [1] (setting [3]) was determined as 100%; in experiment [1] (setting [4]), 80%; in the experiment on Avena fatua (AVEFA) (setting [5]), 70%; with Avena fatua (AVEFA) (setting [6]), 10%; in the experiment with Lolium perenne (LOLPE) (setting [7]) it was 90%; in the experiment with Lolium perenne (LOLPE) (setting [8]) it was 80%. The pest or weed control at 250 g/ha in experiment [2] (setting [9]) and in experiment [2] (setting [10]) was 70% each time.
Regarding `Cc1cc(-c2ccc(Cl)cn2)cc(C)c1C1C(=O)CC(CC(=O)N(C)C(C)(C)C)C1=O` (stereo not drawn) [Compound B368], the pest or weed control at 250 g/ha came out at 100% in experiment [1] (setting [11]); 100% in experiment [1] (setting [12]); 100% in the experiment on Avena fatua (AVEFA) (setting [13]); 90% in the experiment on Avena fatua (AVEFA) (setting [14]); 100% in the experiment on Lolium perenne (LOLPE) (setting [15]); 100% in the experiment with Lolium perenne (LOLPE) (setting [16]). In addition, the pest or weed control at 250 g/ha in experiment [2] (setting [17]) and in experiment [2] (setting [18]) was 90% in each case.
`Cc1cc(-c2ncc(Cl)cc2Cl)cc(C)c1C1C(=O)CC(CC(=O)NCc2cccc(Cl)c2)C1=O` (stereo not drawn) [Compound A135]: the pest or weed control at 250 g/ha is 100% in experiment [1] (setting [19]); 60% in experiment [1] (setting [20]); 100% in the experiment on Avena fatua (AVEFA) (setting [21]); 30% in the experiment on Avena fatua (AVEFA) (setting [22]); 90% in the experiment on Lolium perenne (LOLPE) (setting [23]); 70% in the experiment with Lolium perenne (LOLPE) (setting [24]). For the same compound, the values for the pest or weed control at 250 g/ha in experiment [2] (setting [25]) and in experiment [2] (setting [26]) were 90% and 20%, respectively.
With `CCNC(=O)CC1CC(=O)C(c2c(C)cc(-c3ncc(F)cn3)cc2C)C1=O` (stereo not drawn) [Compound B277], the pest or weed control at 250 g/ha (in experiment [1] (setting [3]); in experiment [1] (setting [4]); in the experiment on Avena fatua (AVEFA) (setting [5]); in the experiment on Avena fatua (AVEFA) (setting [6]); with Lolium perenne (LOLPE) (setting [7]); with Lolium perenne (LOLPE) (setting [8])) was 100% each time. Besides, the pest or weed control at 250 g/ha in experiment [2] (setting [9]) and in experiment [2] (setting [10]) was 100% throughout.
Consider `Cc1cc(-c2ncc(Cl)cn2)cc(C)c1C1C(=O)CC(CC(=O)NCC2CC2)C1=O` (stereo not drawn) [Compound B342], for which the pest or weed control at 250 g/ha in experiment [1] (setting [11]) amounted to 100%; in experiment [1] (setting [12]), 100%; with Avena fatua (AVEFA) (setting [13]), 100%; with Avena fatua (AVEFA) (setting [14]) it was 90%; in the experiment with Lolium perenne (LOLPE) (setting [15]) it was 100%; in the experiment on Lolium perenne (LOLPE) (setting [16]) it was 100%. In addition, the pest or weed control at 250 g/ha in experiment [2] (setting [17]) and in experiment [2] (setting [18]) was 100% each time.
Take `Cc1cc(-c2ncc(F)cc2F)cc(C)c1C1C(=O)C[C@@H](CC(=O)NC(C)(C)C)C1=O` (stereo partly drawn) [Compound B51]: the pest or weed control at 250 g/ha in experiment [1] (post-emergence, 360 h, 250 g/ha, post-emergence, 15 DAA, visual assessment (100%=total damage, 0%=no damage), read-out: Post-emergence herbicidal activity (percentage phytotoxicity) ECHCG POST) amounted to 100%; in experiment [1] (pre-emergence, 480 h, 250 g/ha, pre-emergence, 20 DAA, visual assessment (100%=total damage, 0%=no damage), read-out: Pre-emergence herbicidal activity (percentage phytotoxicity) ECHCG PRE), 100%; in the experiment with Avena fatua (AVEFA) (post-emergence, 360 h, 250 g/ha, post-emergence, 15 DAA, visual assessment (100%=total damage, 0%=no damage), read-out: Post-emergence herbicidal activity (percentage phytotoxicity) AVEFA POST), 100%; in the experiment on Avena fatua (AVEFA) (pre-emergence, 480 h, 250 g/ha, pre-emergence, 20 DAA, visual assessment (100%=total damage, 0%=no damage), read-out: Pre-emergence herbicidal activity (percentage phytotoxicity) AVEFA PRE), 80%; in the experiment on Lolium perenne (LOLPE) (post-emergence, 360 h, 250 g/ha, post-emergence, 15 DAA, visual assessment (100%=total damage, 0%=no damage), read-out: Post-emergence herbicidal activity (percentage phytotoxicity) LOLPE POST), 100%; in the experiment with Lolium perenne (LOLPE) (pre-emergence, 480 h, 250 g/ha, pre-emergence, 20 DAA, visual assessment (100%=total damage, 0%=no damage), read-out: Pre-emergence herbicidal activity (percentage phytotoxicity) LOLPE PRE), 100%. Further, the pest or weed control at 250 g/ha worked out at 100% in experiment [2] (post-emergence, 360 h, 250 g/ha, post-emergence, 15 DAA, visual assessment (100%=total damage, 0%=no damage), read-out: Post-emergence herbicidal activity (percentage phytotoxicity) ALOMY POST) and 90% in experiment [2] (pre-emergence, 480 h, 250 g/ha, pre-emergence, 20 DAA, visual assessment (100%=total damage, 0%=no damage), read-out: Pre-emergence herbicidal activity (percentage phytotoxicity) ALOMY PRE).
With `C#CCNC(=O)CC1CC(=O)C(c2c(C)cc(-c3ncc(F)cc3F)cc2C)C1=O` (stereo not drawn) [Compound B336], the pest or weed control at 250 g/ha (in experiment [1] (setting [11]); in experiment [1] (setting [12]); in the experiment with Avena fatua (AVEFA) (setting [13]); with Avena fatua (AVEFA) (setting [14]); in the experiment on Lolium perenne (LOLPE) (setting [15]); in the experiment on Lolium perenne (LOLPE) (setting [16])) was 100% in each case. Besides, the pest or weed control at 250 g/ha in experiment [2] (setting [17]) and in experiment [2] (setting [18]) was 100% throughout.
For `COCCCNC(=O)CC1CC(OC(=O)C(C)(C)C)=C(c2c(C)cc(C)cc2C)C1=O` (stereo not drawn) [Compound P10], the pest or weed control at 250 g/ha in experiment [1] (setting [11]) was determined as 90%; in experiment [1] (setting [12]), 90%; in the experiment with Avena fatua (AVEFA) (setting [13]), 90%; in the experiment on Avena fatua (AVEFA) (setting [14]), 60%; with Lolium perenne (LOLPE) (setting [15]), 90%; with Lolium perenne (LOLPE) (setting [16]) it was 90%. Besides, the pest or weed control at 250 g/ha in experiment [2] (setting [17]) and in experiment [2] (setting [18]) was 90% each time.
Consider `Cc1cc(-c2ncc(Cl)cn2)cc(C)c1C1C(=O)CC(CC(=O)NC(C)(C)C)C1=O` (stereo not drawn) [Compound A40], for which the pest or weed control at 250 g/ha was determined as 100% in experiment [1] (setting [19]); 100% in experiment [1] (setting [20]); 100% in the experiment with Avena fatua (AVEFA) (setting [21]); 90% in the experiment with Avena fatua (AVEFA) (setting [22]); 100% in the experiment with Lolium perenne (LOLPE) (setting [23]); 100% in the experiment on Lolium perenne (LOLPE) (setting [24]). Moreover, the pest or weed control at 250 g/ha in experiment [2] (setting [25]) and in experiment [2] (setting [26]) was 100% in each case.
